Laboratory results from patent US7778779B2, “Method of identifying a chemical entity which is a hydroxylase modulator” (Isis Innovation Limited, priority 2002, dated 2010).

Tests used:
Format in all cases: biochemical
[1] = molecular target: T1, FIH (Homo sapiens, UniProt Q9NWT6); assay: kinetic analyses of N-oxaloyl amino acid inhibitors of FIH; details: for IC50: inhibition of FIH, kinetic analyses
T1 construct: His6 (N, cleaved yes); made in house; host or cells: Escherichia coli BL21(DE3), pET28a(+)

[2] = test system: procollagen prolyl-hydroxylase; assay: inhibition of procollagen prolyl-hydroxylase by N-oxaloylalanine enantiomers; details: S- versus R-enantiomer
Text: (§1) Such inhibitors may or may not chelate to an active site metal.

[3] = test system: PHD isozymes; assay: inhibition of PHD isozymes by N-oxaloylalanine enantiomers; details: S- versus R-enantiomer
Text: as §1

T1 sequence (Q9NWT6 whole entry): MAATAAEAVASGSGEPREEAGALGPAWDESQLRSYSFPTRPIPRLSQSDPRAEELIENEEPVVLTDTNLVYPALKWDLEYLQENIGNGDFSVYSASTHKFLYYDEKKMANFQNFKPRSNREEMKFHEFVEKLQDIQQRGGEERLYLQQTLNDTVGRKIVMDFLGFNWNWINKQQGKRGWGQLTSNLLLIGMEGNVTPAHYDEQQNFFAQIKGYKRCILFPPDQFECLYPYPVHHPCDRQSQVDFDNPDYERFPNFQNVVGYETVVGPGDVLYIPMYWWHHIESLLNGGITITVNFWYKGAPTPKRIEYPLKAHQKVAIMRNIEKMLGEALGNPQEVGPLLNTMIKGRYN

| inhibition of FIH, in words ([1]; used as 2OG analogue in co-crystallisation) | IC50 [1] [µM] | relative potency of enantiomers (reversed selectivity) [2] | Structure (SMILES) | relative potency of enantiomers (reversed selectivity) [3] |
| --- | --- | --- | --- | --- |
| FIH inhibitor | – | – | O=C(O)CNC(=O)C(=O)O [NOG, N-oxaloylglycine, reference compound] | – |
| – | 400 | – | C[C@H](NC(=O)C(=O)O)C(=O)O (single isomer, unassigned) [R-enantiomer, N-oxaloylalanine] | – |
| – | 2500 | more potent | C[C@H](NC(=O)C(=O)O)C(=O)O [S-enantiomer, N-oxaloylalanine] | more potent |
